Assays:
[1] = system: Kupffer cells; experiment: Cytokine secretion in Kupffer cells following LPS-induced inflammation (Bio-Plex); type: cell-based, mouse; details: LPS 50 ng/mL; for secretion of IL-1β / secretion of IL-6: 1 μM
Source text: […] Cells treated with DMSO were used as control at the final concentration of 0.5% in medium. All the wells were normalized with DMSO at 0.5% final concentration. The supernatant was collected to measure cytokine secretion using a Bio-Plex Pro mouse cytokine 23-plex assay system (cat #M60009RDPD) using a Bio-Plex Instrument. The cells were washed once with PBS, and then lysed to extract total RNA for performing RT-PCR to evaluate ACMSD modulation of IL-10, SIRT1, and STAT3 gene expression.
All cytokine secretion values were normalized to the luminescent signal relative to the measuring of the cellular ATP (CellTiter-Glo cat #G7571)).

[2] = system: Kupffer cells; experiment: Gene expression (RT-PCR) in Kupffer cells; type: cell-based, mouse
Experimental: 200,000 Kupffer cells were plated out in a 24 well plate and the ACMSD inhibitor (e.g. compounds of present disclosure, compound of Formula I, Ia, Ib, and II) (5 μM) was added 1 hr before the cells were stimulated with LPS overnight 50 ng/ml (1 mg/mL stock solution in H2O, dispensed at 50 ng/mL in the well) final concentration. Cells treated with DMSO were used as control at the final concentration of 0.5% in medium. All the wells were normalized with DMSO at 0.5% final concentration. The supernatant was collected to measure cytokine secretion using a Bio-Plex Pro mouse cytokine 23-plex assay system (cat #M60009RDPD) using a Bio-Plex Instrument. The cells were washed once with PBS, and then lysed to extract total RNA for performing RT-PCR to evaluate ACMSD modulation of IL-10, SIRT1, and STAT3 gene expression.
Briefly, total RNA was extracted from the cells using the manufacturer's protocol for Qiagen RNeasy Plus Mini Kit (cat. 74134). The total RNA concentration was quantified using an Implen Instrument, and the purity was evaluated by measuring the ratio of A260/A280.
Total RNA (1 μg) was reverse transcribed using the manufacturer's protocol for SuperScript IV VILO Master Mix (ThermoFisher cat. #. 11756500). Real-time PCR was then performed in CFX 96 Real Time System (Bio-Rad) as follows: denaturation at 95° C. for 2 minutes, followed by 40 cycles at 95° C. for 10 s, and hybridization at 60° C. for 20 s. QPCR was performed using the 2× QuantiNova SYBR Green PCR Master Mix (Qiagen). Mouse β2 microglobulin (m 02M) was used as a reference gene.

[3] = system: Kupffer cells; experiment: NAD+ biosynthesis in Kupffer cells; type: cell-based
[4] = system: primary hepatocytes; experiment: NAD+ biosynthesis in primary hepatocytes; type: cell-based
[5] = system: kidney proximal tubular HK2 cells; experiment: NAD+ biosynthesis in kidney proximal tubular HK2 cells; type: cell-based
[6] = system: HK2 primary tubule cells; experiment: Gene expression in HK2 (HK-2) primary tubule cells, basal or after Cisplatin insult; type: cell-based
[7] = system: primary hepatocytes; experiment: SIRT1 activation in primary hepatocytes; type: cell-based; details: 500 nM; 24 hrs after treatment
[8] = system: mouse primary hepatocytes; experiment: SOD2 activity in mouse primary hepatocytes; type: cell-based; details: treatment for 24 hrs; stated as dose-dependent
[9] = system: primary hepatocytes; experiment: Gene expression / mRNA levels in primary hepatocytes; type: cell-based, mouse; details: for mRNA levels of mitochondrial genes TFAM, Ndufa, Uqcrc1, CytC, Atp5g1 and CS: mouse primary hepatocytes after 24 hr treatment
[10] = system: co-culture primary hepatocytes and Kupffer cells; experiment: IL-6 secretion in co-culture of primary hepatocytes and Kupffer cells following LPS-induced inflammation; type: cell-based; details: LPS 50 ng/mL; stated as dose-dependent
[11] = system: human primary bone marrow mononuclear cells (BMMCs); experiment: LPS-induced cytokine secretion in human primary bone marrow mononuclear cells (BMMCs); type: cell-based; details: for secretion of TNFα: BMMC cells, LPS 50 ng/mL
[12] = system: co-culture of primary hepatocytes and stellate cells; experiment: Cytokine secretion in co-culture of primary hepatocytes and stellate cells following LPS-induced inflammation; type: cell-based; details: LPS 50 ng/mL; for secretion of IL-1β: 1 μM
[13] = system: co-culture of primary hepatocytes and stellate cells; experiment: Gene expression in co-culture of primary hepatocytes and stellate cells after free fatty acid mix; type: cell-based; details: 5 μM; after 6 hr exposure to palmitate (0.33 mM) and oleate (0.66 mM)
[14] = system: CLP-induced sepsis model in mice; experiment: CLP-induced sepsis model in mice (ex-vivo kidney gene expression, survival); set-up: species or system mouse; details: IP 30 mg/kg/dose
Experimental: C57BL/6 mice (12-15 weeks old) (obtained from Charles River Laboratories) were anesthetized by intraperitoneal (i.p.) injection of a 1:1 solution of ketamine (75 mg/kg) and xylazine (15 mg/kg) (or pentobarbital (70 mg/kg)). The lower abdomen of the mouse was shaved and the area disinfected with a 70% alcohol swab. Under aseptic conditions, a 1 to 2 cm midline laparotomy was performed and the cecum exposed. The cecum was tightly ligated at the level of the second cecal artery with a 2.0 silk suture, perforated twice with a 22-gauge needle, and after expressing to allow for fecal matter to extrude, returned into the abdomen. The abdominal wall is then closed by planes using a running silk 4-0. Control animals underwent the same laparotomy and externalization of the cecum, but no ligation or perforation was performed. Animals were resuscitated with 1.0 mL of 0.9% normal saline, immediately after surgery via subcutaneous injection and recovered on thermal blankets under monitoring. Animals were then treated with 0.5 ml LRS (Q12 hours SQ for 3 days), ampicillin sulbactam (250 mg/kg Q12 hours IP for 3 days) and analgesic treatment (buprenorphine 0.05 mg/kg for 3 days).
ACMSD inhibitors (e.g. compounds of present disclosure, compound of Formula I, Ia, Ib, and II) were administered at two different timepoints: (a) an early phase timepoint i.e. at the time of CLP and (b) at 24 hours after CLP. […] Blood samples and target organ tissue (liver and kidney) were collected at the time of sacrificing for histology and biomarker measurements.
(§1) MATERIALS AND METHODS: Treatment with Compound I-18 in presence of LPS for 24 h has been performed to evaluate anti inflammatory properties and M1 to M2 transition. Renal tubular cells were stimulated with Compound I-18 and TGFβ for 16 hrs to evaluate the expression of genes involved in fibrosis. […] Survival percentage and liver gene modulation has been monitored in Sham groups, LPS and LPS+Compound 1-18 groups (n=8). […] Survival percentage and expression of genes involved in renal inflammation has been monitored.

[15] = system: HK2 cells; experiment: TGF-β-induced fibrosis in HK2 (renal tubular) cells; type: cell-based
Experimental: (§2) MATERIALS AND METHODS: Treatment with Compound I-18 in presence of LPS for 24 h has been performed to evaluate anti inflammatory properties and M1 to M2 transition. Renal tubular cells were stimulated with Compound I-18 and TGFβ for 16 hrs to evaluate the expression of genes involved in fibrosis. Compound 1-18 (50 mg/kg) was dosed daily in mice treated with LPS 15 mg/kg. Survival percentage and liver gene modulation has been monitored in Sham groups, LPS and LPS+Compound 1-18 groups (n=8). 12-15 week old mice underwent CLP (50% ligation, thru-and-thru puncture with 21G needle) to evaluate CLP-induced sepsis. Compound I-18 was dosed at the concentration of 50 mg/kg for 7 days from CLP. Survival percentage and expression of genes involved in renal inflammation has been monitored.

[16] = mRNA levels of mitochondrial and oxidative stress genes (cell type not stated); type: cell-based; details: 100 μM
[17] = system: liver and kidneys; experiment: Transcription of mitochondrial genes in liver and kidneys after administration of ACMSD inhibitors; type: in vivo
[18] = system: murine Kupffer cells; experiment: M1/M2 polarisation of murine Kupffer cells treated with LPS; type: cell-based, mouse
Experimental: as §2

[19] = system: C57BL/6 mice; experiment: LPS-induced systemic inflammation in mice, survival; type: in vivo, mouse; details: 50 mg/kg dosed daily, LPS 15 mg/kg
Experimental: Male C57/6 mice (12-15 weeks old) (obtained from Charles River Laboratories) were housed under a 12 h/12 h light/dark cycle with free access to water and standard food. The mice were divided into four groups: control, control+ACMSD inhibitor, LPS, and LPS+the ACMSD inhibitor. LPS (Sigma; 20 mg/kg/d and 1 mg/ml in 0.9% normal saline) was intraperitoneally injected, and the same volume of 0.9% normal saline alone was used as controls. A dose of 15 mg/kg IP injection of the ACMSD inhibitor (e.g. compounds of present disclosure, compound of Formula I, Ia, Ib, and II) was used which was intraperitoneally injected immediately after LPS injection. An equal volume of the solvent was injected in the control and LPS alone groups. The mice were sacrificed at 24 h after various treatments and the liver and kidneys were collected for subsequent analysis.
as §1

[20] = system: preclinical model of liver and kidney diseases; experiment: Preclinical model of liver and kidney diseases (NASH, AKI); details: in vivo
[21] = system: rat renal NRK52E cells; experiment: OPA-1 expression in rat renal NRK52E cells following Cisplatin insult; type: cell-based; details: via SIRT-3 activation; following Cisplatin insult (100 μM)
[22] = 100 μM, HK-2 cells following cisplatin-insult
[23] = cell system not restated (follows HK2 TGF-β experiment)
[24] = murine Kupffer cells treated with LPS

N#Cc1c(-c2cccs2)nc(SCc2cccc(CC(=O)O)c2)[nH]c1=O [Compound I-18]
secretion of IL-1β [1]: reduces
secretion of IL-6 ([1]; incubation time 24 h): reduced
secretion of TNFα [1]: reduces
secretion of IL-6, dose dependence of the reduction ([1]; incubation time 24 h): in a dose-dependent manner
expression of SIRT-1 [2]: increases
QPRT expression ([2]; inflammatory conditions (LPS at 50 ng/mL), beyond basal conditions): increases
expression of IL-10 ([2]; stated as dose-dependent): increases
expression of STAT3 ([2]; stated as dose-dependent): increases
NAD+ biosynthesis [3]: restores
NAD+ biosynthesis [4]: restores
NAD+ biosynthesis [5]: restores
reduction of SIRT expression induced by a Cisplatin insult ([6]; 50 μM, HK2 primary tubule cells): reverses
expression of OPA-1 [6, 22]: increases
expression of SOD2 [6, 22]: increases
expression of SIRT-3 ([6]; HK2 primary tubule cells): increases
mRNA levels of mitochondrial genes Sod1, Ndufa2, Cox2 and CytC ([6]; HK-2 cells after 24 hr treatment): increase
SIRT1 activation [7]: activate
activity of mitochondrial superoxide dismutase 2, SOD2 [8]: increases
mRNA levels of mitochondrial genes TFAM, Ndufa, Uqcrc1, CytC, Atp5g1 and CS [9]: increases
secretion of IL-6 [10]: reduced
secretion of LPS-induced IL-6 ([11]; 5 μM, human BMMCs): reduces
secretion of TNFα [11]: reduces
secretion of IL-1β [12]: reduces
secretion of TNFα [12]: reduces
expression of TNFα [13]: reduced
expression of pro-fibrotic chemokine CTGF [13]: reduces
expression of pro-fibrotic cytokine TGF-β [13]: reduces
expression of the pro-fibrotic genes BAX, ACTA2, Col1A1, fibronectin, THBS-1 and TIMP2 [13]: reduces
expression of IL-1β in ex-vivo kidney tissue samples [14]: reduced
expression of MCP1 in ex-vivo kidney tissue samples [14]: reduced
expression of TNFα in ex-vivo kidney tissue samples [14]: reduced
SMAD4 expression ([15]; TGF-β-induced fibrosis in HK2 cells): less modulated
SMAD3 ([15]; both preventive and therapeutic treatment, TGF-β-induced fibrosis in HK2 cells): dose-dependent reduction
expression of TIMP2 [15, 23]: dose-dependent reduction
expression of fibronectin [15, 23]: dose-dependent reduction
in vitro fibrosis in renal cells ([15]; renal tubular cells stimulated with TGFβ for 16 hrs): reduced
mRNA levels of mitochondrial and oxidative stress genes CS, Ndufa2, Cox2, Atp5g1, Sod1 and Sod2 [16]: increases
expression of the same genes (Mcad, Cpt1a, Ndufa2, Atp5g1, Sod2) in the kidneys [17]: unaffected
transcription of the mitochondrial genes Mcad, Cpt1a, Ndufa2, Atp5g1 and Sod2 in the liver [17]: induces
polarisation of resident liver macrophages (Kupffer cells) towards an M2 phenotype (M1-to-M2 transition) ([18]; in vitro, M1 induced by LPS): promoting their conversion
M1 phenotype gene markers iNOS, IL-6 and TNFα [18, 24]: decrease
M2 phenotype gene markers Arginase-1, Mannose Receptor (Mrc-2) and IL-10 [18, 24]: increase
anti-inflammatory M2 Kupffer macrophages / M2 macrophage phenotype [18, 24]: promotes
pro-inflammatory M1 Kupffer macrophages ([18]; murine Kupffer cells treated with LPS, dose-response manner): blocks
M2 macrophage phenotype ([18]; two different stimuli (LPS and IL-4)): can promote
survival in LPS-induced systemic inflammation [19]: promotes survival
effects in preclinical model of liver and kidney diseases, such as NASH and AKI [20]: protective effects

N#Cc1c(-c2cccs2)nc(SCc2cccc(-c3nn[nH]n3)c2)[nH]c1=O [Compound I-17]
secretion of IL-1β [1]: reduces
secretion of IL-6 ([1]; incubation time 24 h): reduced
secretion of TNFα [1]: reduces
NAD+ biosynthesis [3]: restores
NAD+ biosynthesis [4]: restores
NAD+ biosynthesis [5]: restores
SIRT1 activation [7]: activate
activity of mitochondrial superoxide dismutase 2, SOD2 [8]: increases
mRNA levels of mitochondrial genes TFAM, Ndufa, Uqcrc1, CytC, Atp5g1 and CS [9]: increases
expression of mitochondrial SOD2 ([9]; primary hepatocytes): increases
mRNA levels of fatty acid oxidation genes Mcad, Cpt1a, Hadha1, Hsl, Pdk4 and Sdha ([9]; primary hepatocytes after 6 hr exposure to palmitate (0.33 mM) and oleate (0.66 mM)): increases
expression of mitochondrial transcription factor A, TFAM ([9]; primary hepatocytes, via SIRT-1 activation): increasing
secretion of IL-6 [10]: reduced
secretion of TNFα [11]: reduces
secretion of IL-1β [12]: reduces
secretion of TNFα [12]: reduces
expression of IL-1β [13]: reduced
expression of TNFα [13]: reduced
expression of pro-fibrotic chemokine CTGF [13]: reduces
expression of pro-fibrotic cytokine TGF-β [13]: reduces
expression of the pro-fibrotic genes BAX, ACTA2, Col1A1, fibronectin, THBS-1 and TIMP2 [13]: reduces
expression of OPA-1 [21]: increasing
expression of the same genes (Mcad, Cpt1a, Ndufa2, Atp5g1, Sod2) in the kidneys [17]: unaffected
transcription of the mitochondrial genes Mcad, Cpt1a, Ndufa2, Atp5g1 and Sod2 in the liver [17]: induces

Source: US20230414615A1, “PYRIMIDINONE COMPOUNDS FOR TREATING ACUTE INFLAMMATION” (TES Pharma S.r.l., priority 2022, published 2023)
